The structures appear in SMILES notation.

This experiment relates to STAT1 phosphorylation (Ser727, Tyr701). The experiment in a line: Immunoblot of STAT1 phosphorylation in IFN-γ-stimulated PBMC-derived macrophages. Type of experiment: cell-based, human. To be noted: pre-treatment two hours, 60 minutes of IFN-γ stimulation, vs DMSO. As to the method:
FIGS. 3A-3F show RSK1 is activated through JAK signaling and its inhibition suppresses STAT1 phosphorylation at Ser727 in human primary macrophages in response to IFN-γ. (FIG. 3A) PBMC-derived macrophages were pre-treated with DMSO or 10 μM a pan-JAK inhibitor, pyridone-6, for two hours and then stimulated with IFN-γ for indicated time under serum starvation. Cell lysates were subjected to immunoprecipitation with normal IgG or anti-RSK1 followed by immunoblot analysis using the indicated antibodies. WCL, whole cell lysate. N=3 donors. (FIG. 3B) Immunoblots of cell lysates from macrophages that were transfected with control siRNA or RSK1 siRNA followed by stimulation with IFN-γ for indicated time under serum starvation. N=2 donors. (FIG. 3C) Immunoblots of cell lysates from macrophages that were pre-treated with DMSO or BI-D1870 for two hours and subsequently left unstimulated or stimulated with IFN-γ for 1 hour under serum starvation. (FIG. 3D) Densitometric based quantification (ImageJ Software) of STAT1-pSer727 in panel (FIG. 3C) plus three additional donors. The phosphorylation levels in cells pretreated with DMSO and stimulated were defined as 1.0. Data are means±SE. N=6 donors. **P<0.01 indicate significance for phosphorylation levels compared to control (treatment with DMSO and IFN-γ) by Dunnett's comparison test. (FIG. 3E) Macrophages were treated with DMSO or BI-d1870 for two hours followed by IFN-γ stimulation under serum starvation. Cell lysates were subjected to immunoprecipitation with normal IgG or anti-STAT1-pSer727 followed by SYPRO ruby stain or immunoblot analysis with the indicated antibodies. Immunoprecipitants in the gel (red square) were in-gel digested for parallel reaction monitoring (PRM) mass spectrometry. (FIG. 3F) Quantification of PRM ions (MS/MS ions) of the indicated STAT1 peptide harboring a phosphorylation at Ser727 (and oxidized methionine, m), generated from the digest of panel […].
Cell culture of human PBMC-derived primary macrophages. […]
A general note: Immunoblotting shows a protein as a band on a membrane.

As for `CC(C)CCN1c2nc(Nc3cc(F)c(O)c(F)c3)ncc2N(C)C(=O)C1C` (centres unmarked) [BI-D1870], the phospho-STAT1-Ser727 signal entry is recorded as “attenuated signal” and the phospho-STAT-Tyr701 signal entry was “no change”.
